Assay results: publication PMC6437697 (Journal of Medicinal Chemistry, 2019)
Values after ≈ are worked out from the molar mass of the structure shown.

How the values were obtained:
[1] = target: T1, FLT3(R834Q) (Homo sapiens, UniProt P36888, R834Q); assay: KINOMEscan; type: binding; conditions: read-out: % control activity remaining
T1 construct: purchased Eurofins DiscoverX KINOMEscan
T1 sequence (P36888 27-993 R834Q): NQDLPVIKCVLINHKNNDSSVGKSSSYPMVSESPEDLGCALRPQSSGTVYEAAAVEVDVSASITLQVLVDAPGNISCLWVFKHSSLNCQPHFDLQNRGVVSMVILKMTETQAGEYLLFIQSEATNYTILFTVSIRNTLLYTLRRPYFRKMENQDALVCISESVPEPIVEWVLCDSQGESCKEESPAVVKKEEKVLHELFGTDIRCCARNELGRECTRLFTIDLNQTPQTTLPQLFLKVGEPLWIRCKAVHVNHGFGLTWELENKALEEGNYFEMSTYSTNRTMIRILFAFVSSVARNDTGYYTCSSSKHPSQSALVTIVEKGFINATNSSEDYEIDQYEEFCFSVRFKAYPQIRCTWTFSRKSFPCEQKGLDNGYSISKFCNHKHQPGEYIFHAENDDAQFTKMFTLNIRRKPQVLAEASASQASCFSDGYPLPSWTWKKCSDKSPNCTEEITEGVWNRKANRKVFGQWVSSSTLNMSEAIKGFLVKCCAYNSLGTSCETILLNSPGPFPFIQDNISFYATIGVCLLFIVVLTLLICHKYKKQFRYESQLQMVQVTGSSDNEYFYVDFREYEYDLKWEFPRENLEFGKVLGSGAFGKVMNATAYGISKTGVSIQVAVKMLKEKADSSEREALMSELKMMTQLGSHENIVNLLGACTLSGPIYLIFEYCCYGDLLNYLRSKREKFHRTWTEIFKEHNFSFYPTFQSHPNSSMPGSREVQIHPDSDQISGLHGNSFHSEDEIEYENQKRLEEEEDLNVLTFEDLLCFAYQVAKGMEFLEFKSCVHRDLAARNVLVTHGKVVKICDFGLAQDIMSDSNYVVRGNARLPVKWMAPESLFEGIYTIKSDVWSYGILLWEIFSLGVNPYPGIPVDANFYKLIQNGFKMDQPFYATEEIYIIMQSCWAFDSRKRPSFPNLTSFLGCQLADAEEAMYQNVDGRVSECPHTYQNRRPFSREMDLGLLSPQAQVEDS

[2] = target: T2, MARK4 (Homo sapiens, UniProt Q96L34); assay: KINOMEscan; type: binding; conditions: read-out: % control activity remaining
T2 construct: purchased Eurofins DiscoverX KINOMEscan
T2 sequence (Q96L34 1-752): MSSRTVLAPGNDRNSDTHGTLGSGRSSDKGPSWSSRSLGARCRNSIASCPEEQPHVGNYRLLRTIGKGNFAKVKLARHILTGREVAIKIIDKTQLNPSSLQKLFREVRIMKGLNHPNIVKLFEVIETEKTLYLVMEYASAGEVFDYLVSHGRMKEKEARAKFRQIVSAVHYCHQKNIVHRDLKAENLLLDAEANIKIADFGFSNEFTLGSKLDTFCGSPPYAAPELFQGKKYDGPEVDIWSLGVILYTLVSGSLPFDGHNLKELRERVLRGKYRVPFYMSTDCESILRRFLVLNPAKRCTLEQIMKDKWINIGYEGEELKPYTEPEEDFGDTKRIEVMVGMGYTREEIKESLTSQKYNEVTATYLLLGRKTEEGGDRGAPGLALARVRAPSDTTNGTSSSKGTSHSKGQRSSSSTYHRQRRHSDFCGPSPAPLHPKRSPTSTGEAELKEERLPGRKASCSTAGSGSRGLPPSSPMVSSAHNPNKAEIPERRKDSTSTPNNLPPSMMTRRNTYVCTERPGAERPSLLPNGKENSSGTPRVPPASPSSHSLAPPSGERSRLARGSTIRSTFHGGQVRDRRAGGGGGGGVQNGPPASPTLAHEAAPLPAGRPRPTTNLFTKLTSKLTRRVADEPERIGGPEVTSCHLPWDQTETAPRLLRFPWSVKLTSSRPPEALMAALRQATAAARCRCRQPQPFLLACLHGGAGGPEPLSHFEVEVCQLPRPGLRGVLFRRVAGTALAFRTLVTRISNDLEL

[3] = target: T3, EGFR(L858R) (Homo sapiens, UniProt P00533, L858R); assay: KINOMEscan; type: binding; conditions: read-out: % control activity remaining
T3 construct: purchased Eurofins DiscoverX KINOMEscan

[4] = target: T4, LTK (Homo sapiens, UniProt P29376); assay: KINOMEscan; type: binding; conditions: read-out: % control activity remaining
T4 construct: purchased Eurofins DiscoverX KINOMEscan

[5] = in vitro; conditions: human
[6] = target: T5, MEK6 (Homo sapiens, UniProt P52564); assay: KINOMEscan; type: binding; conditions: read-out: % control activity remaining
T5 construct: purchased Eurofins DiscoverX KINOMEscan

[7] = Measured lipophilicity Log D7.4; conditions: pH 7.4
[8] = target: T6, GRK2 (Homo sapiens, UniProt P25098); assay: KINOMEscan; type: binding; conditions: read-out: % control activity remaining
T6 construct: purchased Eurofins DiscoverX KINOMEscan

[9] = Aqueous buffer solubility (KSol)
[10] = target: T7, CAMK1B (Homo sapiens, UniProt Q6P2M8); assay: KINOMEscan; type: binding; conditions: read-out: % control activity remaining
T7 construct: purchased Eurofins DiscoverX KINOMEscan

[11] = target: T8, GRK3 (Homo sapiens, UniProt P35626); assay: KINOMEscan; type: binding; conditions: read-out: % control activity remaining
T8 construct: purchased Eurofins DiscoverX KINOMEscan

[12] = target: T9, PKFYVE (Homo sapiens, UniProt Q9Y2I7); assay: KINOMEscan; type: binding; conditions: read-out: % control activity remaining
T9 construct: purchased Eurofins DiscoverX KINOMEscan

[13] = target: T10, FLT3(D835V) (Homo sapiens, UniProt P36888, D835V); assay: KINOMEscan; type: binding; conditions: read-out: % control activity remaining
T10 construct: purchased Eurofins DiscoverX KINOMEscan

[14] = target: T11, VPS34 (Homo sapiens, UniProt Q8NEB9); assay: KINOMEscan; type: binding; conditions: read-out: % control activity remaining
T11 construct: purchased Eurofins DiscoverX KINOMEscan

[15] = target: T12, WNK4 (Homo sapiens, UniProt Q96J92); assay: KINOMEscan; type: binding; conditions: read-out: % control activity remaining
T12 construct: purchased Eurofins DiscoverX KINOMEscan

[16] = target: T13, WNK2 (Homo sapiens, UniProt Q9Y3S1); assay: KINOMEscan; type: binding; conditions: read-out: % control activity remaining
T13 construct: purchased Eurofins DiscoverX KINOMEscan

[17] = target: T14, CDK4 (Homo sapiens, UniProt P11802); assay: KINOMEscan; type: binding; conditions: read-out: % control activity remaining
T14 construct: purchased Eurofins DiscoverX KINOMEscan

[18] = tested on: FLT3(ITD,D835V); assay: KINOMEscan; type: binding, human; conditions: 1000 nM
[19] = target: T15, VRK2 (Homo sapiens, UniProt Q86Y07); assay: KINOMEscan; type: binding; conditions: read-out: % control activity remaining
T15 construct: purchased Eurofins DiscoverX KINOMEscan

[20] = target: T16, TSSK3 (Homo sapiens, UniProt Q96PN8); assay: KINOMEscan; type: binding; conditions: read-out: % control activity remaining
T16 construct: purchased Eurofins DiscoverX KINOMEscan

[21] = tested on: GFP-IRE1α oligomerization in HEK293 cells; assay: GFP-IRE1α foci (oligomerization) assay in HEK293 cells; type: cell-based, human; conditions: absence of tunicamycin

T3 sequence (P00533 25-1210 L858R limits assumed): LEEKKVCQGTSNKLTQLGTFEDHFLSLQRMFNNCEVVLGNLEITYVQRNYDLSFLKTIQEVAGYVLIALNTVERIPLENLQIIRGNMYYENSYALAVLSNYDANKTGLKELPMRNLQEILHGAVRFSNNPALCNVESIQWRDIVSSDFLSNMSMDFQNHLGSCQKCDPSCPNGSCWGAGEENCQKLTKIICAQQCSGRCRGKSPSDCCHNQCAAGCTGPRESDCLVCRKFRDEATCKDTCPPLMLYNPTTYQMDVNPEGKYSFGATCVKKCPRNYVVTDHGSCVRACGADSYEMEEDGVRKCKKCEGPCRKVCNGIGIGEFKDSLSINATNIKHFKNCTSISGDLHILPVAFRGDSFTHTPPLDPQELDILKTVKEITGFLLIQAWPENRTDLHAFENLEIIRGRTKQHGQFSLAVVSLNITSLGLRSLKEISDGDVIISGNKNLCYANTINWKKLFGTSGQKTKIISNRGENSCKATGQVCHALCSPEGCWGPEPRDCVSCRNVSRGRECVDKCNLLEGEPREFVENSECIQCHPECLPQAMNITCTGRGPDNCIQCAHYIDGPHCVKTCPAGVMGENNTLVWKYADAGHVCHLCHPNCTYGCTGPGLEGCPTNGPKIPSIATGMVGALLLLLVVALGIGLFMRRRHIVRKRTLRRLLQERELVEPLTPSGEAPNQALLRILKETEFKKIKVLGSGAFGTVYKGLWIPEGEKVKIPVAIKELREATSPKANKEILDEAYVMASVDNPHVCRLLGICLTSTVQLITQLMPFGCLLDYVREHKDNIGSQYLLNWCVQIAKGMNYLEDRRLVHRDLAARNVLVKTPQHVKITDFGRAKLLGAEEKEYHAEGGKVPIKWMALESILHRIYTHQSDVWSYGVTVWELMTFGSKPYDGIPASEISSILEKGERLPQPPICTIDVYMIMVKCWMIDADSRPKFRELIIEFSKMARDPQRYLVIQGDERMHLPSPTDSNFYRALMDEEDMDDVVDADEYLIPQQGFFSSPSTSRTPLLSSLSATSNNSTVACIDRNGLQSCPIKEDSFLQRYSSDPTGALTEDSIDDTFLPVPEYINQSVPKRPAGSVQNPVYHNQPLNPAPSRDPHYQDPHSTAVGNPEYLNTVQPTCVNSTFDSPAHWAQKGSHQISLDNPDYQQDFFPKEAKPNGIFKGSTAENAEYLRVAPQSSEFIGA
T4 sequence (P29376 17-864): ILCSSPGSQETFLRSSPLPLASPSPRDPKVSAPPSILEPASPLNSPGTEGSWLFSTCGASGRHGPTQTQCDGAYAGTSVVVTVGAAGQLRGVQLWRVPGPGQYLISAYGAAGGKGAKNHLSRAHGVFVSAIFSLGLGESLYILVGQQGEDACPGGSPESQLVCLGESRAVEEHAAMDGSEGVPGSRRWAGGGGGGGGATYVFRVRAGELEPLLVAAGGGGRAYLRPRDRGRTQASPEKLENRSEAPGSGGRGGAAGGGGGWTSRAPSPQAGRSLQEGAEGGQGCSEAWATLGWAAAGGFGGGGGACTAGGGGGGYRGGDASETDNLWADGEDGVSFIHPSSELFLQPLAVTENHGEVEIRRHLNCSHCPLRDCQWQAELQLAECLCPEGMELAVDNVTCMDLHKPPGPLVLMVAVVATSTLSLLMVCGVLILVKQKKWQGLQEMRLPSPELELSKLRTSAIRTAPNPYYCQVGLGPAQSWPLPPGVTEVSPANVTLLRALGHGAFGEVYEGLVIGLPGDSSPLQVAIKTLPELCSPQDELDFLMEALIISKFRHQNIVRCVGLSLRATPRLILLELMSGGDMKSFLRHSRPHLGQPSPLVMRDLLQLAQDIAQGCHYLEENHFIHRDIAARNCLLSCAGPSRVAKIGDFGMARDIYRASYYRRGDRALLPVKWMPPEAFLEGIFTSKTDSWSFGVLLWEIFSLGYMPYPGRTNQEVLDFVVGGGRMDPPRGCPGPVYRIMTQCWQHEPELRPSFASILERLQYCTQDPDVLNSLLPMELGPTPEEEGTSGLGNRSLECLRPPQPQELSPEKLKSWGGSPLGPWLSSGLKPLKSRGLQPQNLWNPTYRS
T5 sequence (P52564 whole entry): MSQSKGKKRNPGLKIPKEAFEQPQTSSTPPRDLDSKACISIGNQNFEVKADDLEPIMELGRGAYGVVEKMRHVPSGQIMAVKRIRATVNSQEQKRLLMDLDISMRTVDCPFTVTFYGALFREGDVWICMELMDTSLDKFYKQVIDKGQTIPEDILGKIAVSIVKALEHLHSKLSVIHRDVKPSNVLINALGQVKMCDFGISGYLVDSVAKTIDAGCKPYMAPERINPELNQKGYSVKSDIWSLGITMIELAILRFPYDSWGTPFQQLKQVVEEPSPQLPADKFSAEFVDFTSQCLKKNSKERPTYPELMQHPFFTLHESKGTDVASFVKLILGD
T7 sequence (Q6P2M8 whole entry): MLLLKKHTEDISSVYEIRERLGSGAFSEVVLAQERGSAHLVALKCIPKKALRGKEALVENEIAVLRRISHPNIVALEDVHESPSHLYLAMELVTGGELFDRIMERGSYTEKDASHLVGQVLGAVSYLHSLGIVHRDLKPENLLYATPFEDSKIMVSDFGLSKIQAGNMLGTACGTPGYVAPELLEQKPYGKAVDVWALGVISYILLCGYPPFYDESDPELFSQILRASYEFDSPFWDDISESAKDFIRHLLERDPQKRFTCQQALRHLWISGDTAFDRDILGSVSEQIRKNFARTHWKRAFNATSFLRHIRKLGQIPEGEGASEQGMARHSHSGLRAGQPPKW
T15 sequence (Q86Y07 whole entry): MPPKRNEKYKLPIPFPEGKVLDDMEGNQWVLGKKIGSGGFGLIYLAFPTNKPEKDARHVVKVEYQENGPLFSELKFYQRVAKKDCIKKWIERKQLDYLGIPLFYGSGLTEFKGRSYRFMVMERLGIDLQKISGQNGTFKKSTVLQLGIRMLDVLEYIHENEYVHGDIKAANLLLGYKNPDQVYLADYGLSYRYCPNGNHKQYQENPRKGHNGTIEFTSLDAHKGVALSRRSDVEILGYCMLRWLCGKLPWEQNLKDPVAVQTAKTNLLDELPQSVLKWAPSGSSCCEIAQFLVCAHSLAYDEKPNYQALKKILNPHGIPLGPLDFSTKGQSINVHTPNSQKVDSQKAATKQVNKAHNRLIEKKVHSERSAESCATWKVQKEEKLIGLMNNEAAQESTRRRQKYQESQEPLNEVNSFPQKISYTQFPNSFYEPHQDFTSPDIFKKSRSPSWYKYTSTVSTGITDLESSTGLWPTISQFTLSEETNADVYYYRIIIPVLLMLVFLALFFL
T12 sequence (Q96J92 whole entry): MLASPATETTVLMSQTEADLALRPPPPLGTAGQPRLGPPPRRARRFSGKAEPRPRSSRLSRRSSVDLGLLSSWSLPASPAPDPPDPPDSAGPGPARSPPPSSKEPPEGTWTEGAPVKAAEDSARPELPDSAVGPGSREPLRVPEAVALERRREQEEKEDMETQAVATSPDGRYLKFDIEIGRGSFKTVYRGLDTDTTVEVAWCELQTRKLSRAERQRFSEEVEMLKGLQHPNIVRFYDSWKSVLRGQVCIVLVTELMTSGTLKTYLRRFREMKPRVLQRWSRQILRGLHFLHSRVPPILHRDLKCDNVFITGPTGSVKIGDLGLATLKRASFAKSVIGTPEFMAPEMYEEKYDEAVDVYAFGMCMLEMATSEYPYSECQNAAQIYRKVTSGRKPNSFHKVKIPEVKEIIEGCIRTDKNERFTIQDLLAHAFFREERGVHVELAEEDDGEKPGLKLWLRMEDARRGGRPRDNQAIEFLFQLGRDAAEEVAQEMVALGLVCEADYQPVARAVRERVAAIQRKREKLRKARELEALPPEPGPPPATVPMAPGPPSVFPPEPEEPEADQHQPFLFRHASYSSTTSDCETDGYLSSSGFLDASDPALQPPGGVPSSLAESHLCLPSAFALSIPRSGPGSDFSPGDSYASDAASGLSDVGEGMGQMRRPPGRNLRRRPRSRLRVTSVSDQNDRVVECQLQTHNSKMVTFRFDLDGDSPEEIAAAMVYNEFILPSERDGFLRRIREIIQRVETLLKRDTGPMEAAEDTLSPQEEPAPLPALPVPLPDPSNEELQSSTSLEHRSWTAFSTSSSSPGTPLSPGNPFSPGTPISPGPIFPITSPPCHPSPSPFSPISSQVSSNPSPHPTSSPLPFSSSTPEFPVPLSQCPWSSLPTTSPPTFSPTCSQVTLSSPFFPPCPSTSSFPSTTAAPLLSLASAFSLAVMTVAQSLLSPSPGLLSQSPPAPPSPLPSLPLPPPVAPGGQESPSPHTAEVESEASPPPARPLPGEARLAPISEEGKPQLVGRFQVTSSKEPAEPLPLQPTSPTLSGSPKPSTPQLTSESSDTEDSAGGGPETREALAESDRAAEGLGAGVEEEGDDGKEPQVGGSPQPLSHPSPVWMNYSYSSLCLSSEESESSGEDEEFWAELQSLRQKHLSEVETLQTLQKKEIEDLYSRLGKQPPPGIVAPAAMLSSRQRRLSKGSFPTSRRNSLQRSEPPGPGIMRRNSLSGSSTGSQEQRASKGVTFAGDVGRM
T16 sequence (Q96PN8 whole entry): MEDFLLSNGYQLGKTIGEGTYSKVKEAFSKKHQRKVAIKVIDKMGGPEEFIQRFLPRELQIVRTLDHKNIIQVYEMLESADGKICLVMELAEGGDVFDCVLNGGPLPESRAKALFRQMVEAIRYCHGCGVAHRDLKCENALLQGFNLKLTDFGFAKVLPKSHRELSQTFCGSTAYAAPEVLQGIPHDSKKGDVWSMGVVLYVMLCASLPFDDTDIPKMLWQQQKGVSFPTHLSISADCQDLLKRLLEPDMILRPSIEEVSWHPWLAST
T14 sequence (P11802 whole entry): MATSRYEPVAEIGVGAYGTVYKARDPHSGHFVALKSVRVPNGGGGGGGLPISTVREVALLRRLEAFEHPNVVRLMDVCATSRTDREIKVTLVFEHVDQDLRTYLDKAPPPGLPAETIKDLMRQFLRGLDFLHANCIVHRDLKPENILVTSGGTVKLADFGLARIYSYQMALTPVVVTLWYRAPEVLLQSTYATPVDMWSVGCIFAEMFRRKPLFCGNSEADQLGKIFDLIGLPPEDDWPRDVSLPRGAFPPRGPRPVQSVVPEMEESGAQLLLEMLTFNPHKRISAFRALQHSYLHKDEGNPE

## Clc1cc(NCC2CC2)c2ncc(-c3ccc4[nH]ncc4c3)n2n1 [compound 2, 6-Chloro-N-(cyclopropylmethyl)-3-(1H-indazol-5-yl)imidazo[1,2-b]pyridazin-8-amine]
[1]
  remaining binding at 1 µM: 94%
[2]
  remaining binding at 1 µM: 92%
[3]
  remaining binding at 1 µM: 68%
[4]
  remaining binding at 1 µM: 100%
[5]
  EC50: > 49 µM
[6]
  remaining binding at 1 µM: 98%

## O=C(CN1CCOCC1)N[C@H]1CC[C@H](Nc2cc(Cl)nn3c(-c4ccc5[nH]ncc5c4)cnc23)CC1 [compound 26]
[7]
  logD: 1.8
[1]
  remaining binding at 1 µM: 0.7%
[8]
  remaining binding at 1 µM: 84%
[9]
  solubility: 80 µM (≈ 40.7 µg/mL)
[2]
  remaining binding at 1 µM: 95%
[10]
  remaining binding at 1 µM: 75%
[3]
  remaining binding at 1 µM: 83%
[4]
  remaining binding at 1 µM: 88%
[11]
  remaining binding at 1 µM: 74%
[12]
  remaining binding at 1 µM: 87%
[13]
  remaining binding at 1 µM: 0%
[5]
  EC50: > 49 µM
[14]
  remaining binding at 1 µM: 94%
[6]
  remaining binding at 1 µM: 93%
[15]
  remaining binding at 1 µM: 100%
[16]
  remaining binding at 1 µM: 34%
[17]
  remaining binding at 1 µM: 100%
[18]
  % control activity remaining: 0.7%
[19]
  remaining binding at 1 µM: 98%
[20]
  remaining binding at 1 µM: 100%
[21]
  stimulation of GFP-IRE1α foci formation by compound on its own: No stimulation

## CN1CCC(CNc2cc(Cl)nn3c(-c4cc5nc(Nc6ccccc6)[nH]c5cc4F)cnc23)CC1 [compound 31, 6-Chloro-3-(6-fluoro-2-(phenylamino)-1H-benzo[d]imidazol-5-yl)-N-((1-methylpiperidin-4-yl)methyl)imidazo[1,2-b]pyridazin-8-amine]
[7]
  logD: 3.7
[1]
  remaining binding at 1 µM: 100%
[8]
  remaining binding at 1 µM: 100%
[9]
  solubility: 38 µM (≈ 19.2 µg/mL)
[2]
  remaining binding at 1 µM: 93%
[10]
  remaining binding at 1 µM: 100%
[3]
  remaining binding at 1 µM: 100%
[4]
  remaining binding at 1 µM: 88%
[11]
  remaining binding at 1 µM: 91%
[12]
  remaining binding at 1 µM: 26%
[13]
  remaining binding at 1 µM: 69%
[14]
  remaining binding at 1 µM: 97%
[15]
  remaining binding at 1 µM: 83%
[16]
  remaining binding at 1 µM: 100%
[17]
  remaining binding at 1 µM: 100%
[18]
  % control activity remaining: 76%
[19]
  remaining binding at 1 µM: 82%
[20]
  remaining binding at 1 µM: 91%
[21]
  stimulation of GFP-IRE1α foci formation by compound on its own: No stimulation
